This note sets out measurements from patent EP1803452A1, “ESTER DERIVATIVE AND PHARMACEUTICAL USE THEREOF” (Japan Tobacco, Inc., priority 2004, dated 2006).

Data set [1] can be described thus: Metabolic stability test in plasma. As to conditions: LC/MS; for remaining at 10 min: unchanged form after 10 minutes at 37°C in human plasma, read-out: Remaining rate in human plasma (%/10min); for remaining at 1 h: unchanged form after 60 minutes at 37°C in human plasma, read-out: Remaining rate in human plasma (%/60min). The format is in vitro ADME, human. The procedure: A sample dissolved in DMSO was added to plasma of human or animal species (mouse and hamster). The solutions were incubated at 37°C for 0, 10 and 60 minutes, and acetonitrile containing formic acid (final concentration: 0.1%) was added thereto. The solutions were centrifuged, and the concentration of the sample (unchanged form) in the supernatant was determined by high performance liquid chromatography/mass spectrometry (LC/MS). Based on the data obtained, the remaining rate (%) was calculated according to the following equation. Remaining rate(%) = amount of sample 0,10, or 60 minutes after incubation/amount of sample at zero time after incubation × 100 [formula]
(§1) With respect to the compounds obtained in Working Examples according to the present invention (Compounds 1-1 to 1-115, 2-1, 3-1, 3-2, and 4-1 to 4-4), the results of the remaining rate in human liver S9 and plasma are shown in Tables 28 to 32.

Data set [2] can be described thus: Stability test in buffer (pH 7.4). Format: physicochemical. Particulars: phosphate buffer/acetonitrile 7:3, 100 mM potassium phosphate buffer (pH 7.4) and acetonitrile 7:3 (v/v), LC/MS; for remaining at 10 min: 10 minutes at 37°C, read-out: Buf. remaining rate (%/10min); for remaining at 1 h: 60 minutes at 37°C, read-out: Buf. remaining rate (%/60min). The procedure:
In the tables, Buf. remaining rate was determined by stability test in buffer (pH 7.4) as described below. A sample dissolved in DMSO was mixed with a mixed solution of 100 mM potassium phosphate buffer and acetonitrile in the ratio of 7:3 (v/v). The mixture was incubated at 37°C for 0, 10, and 60 minutes, and acetonitrile containing formic acid (final concentration: 0.1%) was added thereto. The solution was centrifuged, and the concentration of the sample (unchanged form) in the supernatant was determined by high performance liquid chromatography/mass spectrometry (LC/MS). Based on the data obtained, Buf. remaining rate (%) was calculated according to the following equation. Buf.remaining rate(%) = amount of sample 0,10, or 60 minutes after incubation/amount of sample at zero time after incubation × 100 [formula]

Data set [3] in a line: Metabolic stability test in liver S9. Format: in vitro ADME. As to conditions: pH 7.4, human liver S9 2 mg protein/mL, LC/MS; for remaining at 10 min: unchanged form after 10 minutes at 37°C, read-out: Remaining rate in human liver S9 (%/10min); for remaining at 1 h: unchanged form after 60 minutes at 37°C, read-out: Remaining rate in human liver S9 (%/60min). The procedure: Human liver S9 (final concentration: 2 mg protein/mL), was suspended in 100 mM potassium phosphate buffer (pH 7.4, containing β-nicotinamide adenine dinucleotide phosphate: 1.3 mM, D-glucose-6- phosphate: 3.3 mM, magnesium chloride: 3.3 mM, glucose-6-phosphate dehydrogenase:0.4 U/mL). The suspension was mixed with a solution of a sample dissolved in DMSO. The solution was incubated at 37°C for 0, 10 and 60 minutes, and an acetonitrile containing formic acid (final concentration: 0.1%) was added thereto. The solutions were centrifuged, and the concentration of the sample (unchanged form) in the supernatant was determined by high performance liquid chromatography/mass spectrometry (LC/MS). Based on the data obtained, remaining rate (%) was calculated according to the following equation. Remaining rate(%) = amount of sample 0,10, or 60 minutes after [formula] incubation/amount of sample at zero time after incubation × 100 [formula]
as §1

As for `CCOC(=O)c1cc(C)c(OC(=O)CCCc2ccc(NC(=O)c3ccc(C)nc3-c3ccc(C(F)(F)F)cc3)c(C(=O)N(C)C)c2)c(C(=O)OC)c1` [Compound 1-52, 4-[4-(3-dimethylcarbamoyl-4-{[6-methyl-2-(4-trifluoromethylphenyl)pyridine-3-carbonyl]amino}phenyl)butyryloxy]-5-methylisophthalic acid 1-ethyl ester 3-methyl ester], the remaining at 10 min in data set [1] is 12%; in data set [2] it was 100%; in data set [3], 13%. The remaining at 1 h was determined as 0% in data set [1], 101% in data set [2] and 4% in data set [3].

Consider `CN(C)C(=O)c1cc(CCCC(=O)Oc2ccc(C(=O)OCCOCc3ccccc3)cc2)ccc1NC(=O)c1ccccc1-c1ccc(C(F)(F)F)cc1` [Compound 1-89, 4-[4-(3-dimethylcarbamoyl-4-{(4'-trifluoromethylbiphenyl-2-carbonyl)amino}phenyl)butyryloxy]benzoic acid 2-benzyloxyethyl ester], for which the remaining at 10 min was determined as 49% in data set [1], 102% in data set [2] and 6% in data set [3]. Besides, the remaining at 1 h is 0% in data set [1], 104% in data set [2] and 3% in data set [3].

For the molecule `Cc1ccc(C(=O)Nc2ccc(CCCC(=O)Oc3ccc(C(=O)OCc4ccccc4)cc3)cc2C(=O)N(C)C)c(-c2ccc(C(F)(F)F)cc2)n1` [Compound 1-80, 4-[4-(3-dimethylcarbamoyl-4-{[6-methyl-2-(4-trifluoromethylphenyl)pyridine-3-carbonyl]amino}phenyl)butyryloxy]benzoic acid benzyl ester], the figures for the remaining at 10 min in data set [1], in data set [2] and in data set [3] were 4%, 100% and 5%, respectively. Also, the remaining at 1 h in data set [1] was found to be 0%; in data set [2] it was 101%; in data set [3], 0%.

Regarding `COC(=O)c1ccc(OC(=O)CCCc2ccc(NC(=O)c3ccc(C)nc3-c3ccc(C(F)(F)F)cc3)c(C(=O)N(C)C)c2)c(C)c1` [Compound 1-69, 4-[4-(3-dimethylcarbamoyl-4-{[6-methyl-2-(4-trifluoromethylphenyl)pyridine-3-carbonyl]amino}phenyl)butyryloxy]-3-methylbenzoic acid methyl ester], the remaining at 10 min in data set [1] was determined as 70%; in data set [2], 101%; in data set [3], 0%. For the same molecule, the remaining at 1 h in data set [1] was determined as 11%; in data set [2], 106%; in data set [3] it was 0%.

`CC(=O)N1CCC(OC(=O)c2ccc(OC(=O)CCCc3ccc(NC(=O)c4ccccc4-c4ccc(C(F)(F)F)cc4)c(C(=O)N(C)C)c3)cc2)CC1` [Compound 1-109, 4-[4-(3-dimethylcarbamoyl-4-{(4'-trifluoromethylbiphenyl-2-carbonyl)amino}phenyl)butyryloxy]benzoic acid 1-acetylpiperidin-4-yl ester]: the remaining at 10 min was found to be 50% in data set [1], 99% in data set [2] and 0% in data set [3]. The values for the remaining at 1 h in data set [1], in data set [2] and in data set [3] were 3%, 99% and 0%, respectively.

In the case of `COc1cc(C(=O)OCCNC(C)=O)cc(Cl)c1OC(=O)CCCc1ccc(NC(=O)c2ccc(C)nc2-c2ccc(C(F)(F)F)cc2)c(C(=O)N(C)C)c1` [Compound 1-114, 3-chloro-4-[4-(3-dimethylcarbamoyl-4-{[6-methyl-2-(4-trifluoromethylphenyl)pyridine-3-carbonyl]amino}phenyl)butyryloxy]-5-methoxybenzoic acid 2-acetylaminoethyl ester], the remaining at 10 min in data set [1] was 2%; in data set [2], 104%; in data set [3], 14%. Moreover, the remaining at 1 h in data set [1] was determined as 0%; in data set [2], 108%; in data set [3], 3%.

Turning to `COC(=O)c1cc(C)c(OC(=O)CCCc2ccc(NC(=O)c3ccccc3-c3ccc(C(F)(F)F)cc3)c(C(=O)N(C)C)c2)c(C)c1` [Compound 1-64, 4-[4-(3-dimethylcarbamoyl-4-{(4'-trifluoromethylbiphenyl-2-carbonyl)amino}phenyl)butyryloxy]-3,5-dimethylbenzoic acid methyl ester], the remaining at 10 min in data set [1] was 98%; in data set [2], 100%; in data set [3] it was 21%. Besides, the remaining at 1 h in data set [1] turned out to be 93%; in data set [2], 101%; in data set [3] it was 4%.

In the case of `COC(=O)c1ccc(-c2nc(C)ccc2C(=O)Nc2ccc(CCCC(=O)Oc3c(C)cc(C(=O)OC)cc3Cl)cc2C(=O)N(C)C)cc1` [Compound 4-1, 3-chloro-4-[4-(3-dimethylcarbamoyl-4-{[2-(4-methoxycarbonylphenyl)-6-methylpyridine-3-carbonyl]amino}phenyl)butyryloxy]-5-methylbenzoic acid methyl ester], the remaining at 10 min in data set [1] came to 25%; in data set [2], 99%; in data set [3], 0%. Further, the remaining at 1 h came out at 0% in data set [1], 101% in data set [2] and 0% in data set [3].

As to `CN(C)C(=O)c1cc(CCCC(=O)Oc2ccc(-c3nnn(C)n3)cc2)ccc1NC(=O)c1ccccc1-c1ccc(C(F)(F)F)cc1` [Compound 1-95, 4-(3-dimethylcarbamoyl-4-{(4'-trifluoromethylbiphenyl-2-carbonyl)amino}phenyl)butyric acid 4-(2-methyl-2H-tetrazol-5-yl)phenyl ester], the remaining at 10 min was 82% in data set [1], 103% in data set [2] and 0% in data set [3]. Further, the figures for the remaining at 1 h in data set [1], in data set [2] and in data set [3] were 29%, 102% and 0%, respectively.

For `COC(=O)c1cc(C)c(OC(=O)CCCc2ccc(NC(=O)c3ccc(C)nc3-c3ccc(C(F)(F)F)cc3)c(C(=O)N(C)C)c2)c(C(=O)OC)c1` [Compound 1-110, 4-[4-(3-dimethylcarbamoyl-4-{[6-methyl-2-(4-trifluoromethylphenyl)pyridine-3-carbonyl]amino}phenyl)butyryloxy]-5-methylisophthalic acid dimethyl ester], the remaining at 10 min in data set [1] amounted to 26%; in data set [2] it was 99%; in data set [3], 5%. In addition, the results for the remaining at 1 h in data set [1], in data set [2] and in data set [3] were 0%, 102% and 0%, respectively.

`CCOC(=O)c1ccc(OC(=O)CCCc2ccc(NC(=O)c3ccc(C)nc3-c3ccc(C(F)(F)F)cc3)c(C(=O)N(C)C)c2)cc1` [Compound 1-71, 4-[4-(3-dimethylcarbamoyl-4-{[6-methyl-2-(4-trifluoromethylphenyl)pyridine-3-carbonyl]amino}phenyl)butyryloxy]benzoic acid ethyl ester]: the results for the remaining at 10 min in data set [1], in data set [2] and in data set [3] were 53%, 102% and 0%, respectively. Also, the remaining at 1 h was 0% in data set [1], 105% in data set [2] and 0% in data set [3].

Take `COC(=O)c1cc(C(=O)OC(C)C)cc(C)c1OC(=O)CCCc1ccc(NC(=O)c2ccc(C)nc2-c2ccc(C(F)(F)F)cc2)c(C(=O)N(C)C)c1` [Compound 1-111, 4-[4-(3-dimethylcarbamoyl-4-{[6-methyl-2-(4-trifluoromethylphenyl)pyridine-3-carbonyl]amino}phenyl)butyryloxy]-5-methylisophthalic acid 1-isopropyl ester 3-methyl ester]: the remaining at 10 min in data set [1] was 30%; in data set [2] it was 99%; in data set [3], 41%. Besides, the remaining at 1 h in data set [1] came out at 0%; in data set [2], 99%; in data set [3] it was 3%.
